The NIST ThermoML archive (doi:10.1021/acs.jced.9b00278)
± gives the expanded uncertainty stated by the source.

Details: DSC

Triple point temperature (Crystal 1): 410.95 ± 2.1 K
Triple point temperature (Metastable crystal): 409.15 ± 2.1 K
SMILES: O=C(O)c1ccccc1Nc1cccc(C(F)(F)F)c1 [2-[[3-(trifluoromethyl)phenyl]amino]benzoic acid]
